Measurements as given in patent US4689426A, “5-alkylidene-2-halo-4-substituted-2-cyclopentenone and process for production thereof” (Teijin Limited, priority 1983, dated 1987).
Converted amounts (≈) assume the structure as drawn.

Legend:
L1210 leukemia cells = assay: Inhibition of proliferation of L1210 leukemia cells; assay type: cell-based; details: Mus musculus, L1210, 96 h; 4 days at 37° C., trypan blue count of surviving cells
Procedure: Measurement of the action of inhibiting proliferation of L1210 leukemia cells
L1210 leukemia cells were added to an RPMI medium containing 10% FCS (fetal calf serum), and the concentration of the cells was adjusted to 1×10^5 cells/ml. Each of the test compounds shown in Table 1 was dissolved in 99.5% ethanol. Prior to use, the final concentration of the ethanol solution was adjusted to less than 0.1%, and it was added to the culture medium. The culture medium was then maintained at 37° C. in a stationary condition for 4 days. After the cultivation, the number of surviving cells was measured by dyeing with trypan blue. As a control, 0.1% ethanol was used. A dose-response curve was plotted from the ratios of proliferation against the control, and IC50 was determined.

HSV type-1 (KOS) = assay: Inhibition of herpes simplex virus replication in human embryo lung cells, plaque assay on Vero cells; assay type: cell-based, herpes simplex virus type-1 (strain KOS); details: 4 μg/ml, 24 hrs. pretreatment and 24 hrs. after infection; m.o.i. 1; control 1.4 × 10^8; mean of at least three wells
Procedure: (§1) Measurement of inhibitory activities on herpes simplex virus replication
(§2) To evaluate the inhibitory effect of 2-chloro-4-(3,7-dimethyl-6-octenyl)-5-(6-carbomethoxyhexylidene)-2-cyclopentenone against herpes simplex virus [HSV] replication in vitro, human embryo lung cells [HELR66] were grown in 6-well Falcon plates in Eagle's minimal essential medium [MEM] supplemented with 5 percent fetal calf serum [CS] and antibiotics.
(§3) The test compound was dissolved in absolute ethanol and diluted to the appropriate concentrations with culture medium just before use. The cells were incubated at 37° C. in a humidified atmosphere containing 5 percent CO2 and 95 percent air. Confluent monolayers of the cells were treated with 4 μg/ml of the test compound for 24 hrs. before HSV infection. The test compound pretreated cells were infected with HSV type-1 (strain KOS) or HSV type-2 (strain YS-4) at a m.o.i. of 1. After 1 hr. of incubation at 37° C., the cells were further incubated for 24 hrs. with MEM containing with 2 percent CS, antibiotics and 4 μg/ml the test compound. Control media contained the identical concentration of ethanol. HSV infected HEL-R66 cells were harvested with a rubber policeman 24 hrs. after HSV inoculation and stored at -70° C. Titrations were performed by plaque assays on Vero cells.

HSV type-2 (YS-4) = assay: as above; assay type: cell-based, herpes simplex virus type-2 (strain YS-4); details: 4 μg/ml, 24 hrs. pretreatment and 24 hrs. after infection; m.o.i. 1; control 1.4 × 10^8; mean of at least three wells
Procedure: as §1, §2, §3

[1] = test system: Ehrlich ascites carcinoma cells; assay: Antitumor effect on Ehrlich ascites carcinoma, survival of mice; assay type: in vivo, ICR mice; details: over the control
Procedure: Measurement of the antitumor effect on Ehrich ascites carcinoma
1×10^5 Ehrlich ascites carcinoma cells were intraperitoneally administered to ICR mice. After the lapse of 24 hours, 30 mg/kg/day or 20 mg/kg/day of 2-chloro-4-butyl-5-(6-carboxyhexylidene)-2-cyclopentenone (E-form) was intraperitoneally administered to the mice for 5 days. The periods of survival of these animals were examined.

B. subtilis ATCC 6633 = assay: Antimicrobial activity, serial two-fold dilution; assay type: cell-based; details: Bacillus subtilis, ATCC6633; Gram (+); heart infusion agar
Procedure: (§4) Measurement of the antimicrobial activity against Gram positive and negative bacterium
(§5) One loopful of cell suspension (10^8 cells/ml) was inoculated on heart infusion agar medium containing various levels of a compound of this invention (2-chloro-4-n-butyl-5-(6-carboxyhexylidene)-2-cyclopentenone). The minimum inhibitory concentrations (MIC) was determined by a standard serial two-fold dilution method.

P. aeruginosa IFO 3445 = assay: Antimicrobial activity, serial two-fold dilution; assay type: cell-based; details: Pseudomonas aeruginosa, IFO3445; Gram (-); heart infusion agar
Procedure: as §4, §5

P. vulgaris H × 19 = assay: Antimicrobial activity, serial two-fold dilution; assay type: cell-based; details: Proteus vulgaris; Gram (-); heart infusion agar
Procedure: as §4, §5

S. aureus MS 353 = assay: Antimicrobial activity, serial two-fold dilution; assay type: cell-based; details: Staphylococcus aureus, MS353; Gram (+); heart infusion agar
Procedure: as §4, §5

[2] = test system: L1210 mouse leukemia cells; details: Biochem. Biophys. Res. Commun., 105, 956 (1982); cited from earlier work

## CCCCC1C=C(Br)C(=O)/C1=C/CCCCCC(=O)OC (single isomer, unassigned) [2-bromo-4-butyl-5-(6-methoxycarbonylhexylidene)-2-cyclopentenone]
L1210 leukemia cells
  IC50: 0.2 µg/mL (≈ 0.56 µM)

## CCCCC1C=C(Br)C(=O)/C1=C\CCCCCC(=O)OC (single isomer, unassigned) [2-bromo-4-butyl-5-(6-methoxycarbonylhexylidene)-2-cyclopentenone]
L1210 leukemia cells
  IC50: 0.1 µg/mL (≈ 0.28 µM)

## CCCCC1C=C(Cl)C(=O)/C1=C/CCCCCC(=O)OC (single isomer, unassigned) [2-chloro-4-butyl-5-(6-methoxycarbonylhexylidene)-2-cyclopentenone]
L1210 leukemia cells
  IC50: 0.1 µg/mL (≈ 0.32 µM)

## CCCCC1C=C(Cl)C(=O)/C1=C\CCCCCC(=O)OC (single isomer, unassigned) [2-chloro-4-butyl-5-(6-methoxycarbonylhexylidene)-2-cyclopentenone]
L1210 leukemia cells
  IC50: < 0.3 µg/mL

## COC(=O)CCCCCC=C1C(=O)C(Cl)=CC1CCC(C)CCC=C(C)C (stereo not shown) [2-chloro-4-(3,7-dimethyl-6-octenyl)-5-(6-carbomethoxyhexylidene)-2-cyclopentenone]
HSV type-1 (KOS)
  Virus yield: 3.1 × 10^4 pfu/ml
HSV type-2 (YS-4)
  Virus yield: 5.4 × 10^4 pfu/ml

## CCCCC1C=C(Cl)C(=O)/C1=C/CCCCCC(=O)O (stereo not shown) [2-chloro-4-butyl-5-(6-carboxyhexylidene)-2-cyclopentenone]
[1]; 20 mg/kg/day i.p. for 5 days
  increase of life span (ILS%): 40.2%
[1]; 30 mg/kg/day i.p. for 5 days
  increase of life span (ILS%): 30.7%
B. subtilis ATCC 6633
  MIC: 6.24 µg/mL (≈ 20.9 µM)
P. aeruginosa IFO 3445
  MIC: 100 µg/mL (≈ 335 µM)
P. vulgaris H × 19
  MIC: 25 µg/mL (≈ 83.7 µM)
S. aureus MS 353
  MIC: 100 µg/mL (≈ 335 µM)

## CCCCC[C@H](O)/C=C/[C@H]1C(=O)C[C@H](O)[C@@H]1C/C=C\CCCC(=O)O [PGD2]
[2]
  IC50 of PGD2 on L1210 cells: 2.4 micrograms/ml
